Experimental data reported in PubChem BioAssay (NCI).
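96-well plates; 48 h exposure; 5 concentrations. Endpoints by linear interpolation between flanking doses. Not reached: highest tested concentration assigned. TGI: concentration producing complete growth inhibition.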

Columns and labels:
Assay in all cases: DTP human tumour cell line panel, 48 h
UACC-62 melanoma = system: UACC-62 melanoma
RXF-631 renal = system: RXF-631 renal
KM20L2 colon = system: KM20L2 colon
LOX IMVI melanoma = system: LOX IMVI melanoma
OVCAR-8 ovarian = system: OVCAR-8 ovarian
OVCAR-4 ovarian = system: OVCAR-4 ovarian
MOLT-4 leukemia = system: MOLT-4 leukemia
A498 renal = system: A498 renal
HL-60(TB) leukemia = system: HL-60(TB) leukemia
CCRF-CEM leukemia = system: CCRF-CEM leukemia
UACC-257 melanoma = system: UACC-257 melanoma
SW-620 colon = system: SW-620 colon
U251 CNS = system: U251 CNS
RXF 393 renal = system: RXF 393 renal
EKVX NSCLC = system: EKVX NSCLC
OVCAR-3 ovarian = system: OVCAR-3 ovarian
HOP-92 NSCLC = system: HOP-92 NSCLC
ACHN renal = system: ACHN renal
NCI-H460 lung = system: NCI-H460 lung
K-562 leukemia = system: K-562 leukemia
HCT-15 colon = system: HCT-15 colon
HT29 colon = system: HT29 colon
IGROV1 ovarian = system: IGROV1 ovarian
786-0 renal = system: 786-0 renal
NCI-H23 lung = system: NCI-H23 lung
CAKI-1 renal = system: CAKI-1 renal
DMS 114 small cell lung = system: DMS 114 small cell lung
HOP-62 NSCLC = system: HOP-62 NSCLC
HCT-116 colon = system: HCT-116 colon
MALME-3M melanoma = system: MALME-3M melanoma
DLD-1 colon = system: DLD-1 colon
SF-295 CNS = system: SF-295 CNS
OVCAR-5 ovarian = system: OVCAR-5 ovarian
HCC-2998 colon = system: HCC-2998 colon
RPMI-8226 leukemia = system: RPMI-8226 leukemia
SK-MEL-28 melanoma = system: SK-MEL-28 melanoma
M19-MEL melanoma = system: M19-MEL melanoma
LXFL 529 NSCLC = system: LXFL 529 NSCLC
SF-539 CNS = system: SF-539 CNS
SN12C renal = system: SN12C renal
SK-OV-3 ovarian = system: SK-OV-3 ovarian
TK-10 renal = system: TK-10 renal
COLO 205 colon = system: COLO 205 colon
SK-MEL-5 melanoma = system: SK-MEL-5 melanoma
SNB-78 CNS = system: SNB-78 CNS
KM12 colon = system: KM12 colon
M14 melanoma = system: M14 melanoma
A549 NSCLC = system: A549 NSCLC
SNB-75 CNS = system: SNB-75 CNS
NCI-H226 lung = system: NCI-H226 lung
SF-268 CNS = system: SF-268 CNS
SK-MEL-2 melanoma = system: SK-MEL-2 melanoma
UO-31 renal = system: UO-31 renal
SNB-19 CNS = system: SNB-19 CNS
HOP-18 NSCLC = system: HOP-18 NSCLC
SR leukemia = system: SR leukemia
NCI-H522 lung = system: NCI-H522 lung
XF 498 CNS = system: XF 498 CNS
DMS 273 small cell lung = system: DMS 273 small cell lung

Work on `COC(=O)C(C(=O)C(=O)Nc1cccc(O)c1)c1nc2ccc(Cl)cc2[nH]c1=O` (stereo unspecified) yielded a TGI (UACC-62 melanoma) of over 100 µM, a TGI (RXF-631 renal) of over 100 µM and a TGI (KM20L2 colon) of over 100 µM. For the same compound, the TGI (LOX IMVI melanoma) was over 100 µM, the TGI (OVCAR-8 ovarian) was over 100 µM and the TGI (OVCAR-4 ovarian) was over 100 µM. It also gave a TGI (MOLT-4 leukemia) of over 100 µM, a TGI (A498 renal) of over 100 µM and a TGI (HL-60(TB) leukemia) of over 100 µM. The TGI (CCRF-CEM leukemia) was over 100 µM, the TGI (UACC-257 melanoma) was over 100 µM and the TGI (SW-620 colon) was over 100 µM. For the same compound, the TGI (U251 CNS) was over 100 µM, the TGI (RXF 393 renal) was over 100 µM and the TGI (EKVX NSCLC) was over 100 µM. For the same compound, the TGI (OVCAR-3 ovarian) was over 100 µM, the TGI (HOP-92 NSCLC) was over 100 µM and the TGI (ACHN renal) was over 100 µM. The TGI (NCI-H460 lung) was over 100 µM, the TGI (K-562 leukemia) was over 100 µM and the TGI (HCT-15 colon) was over 100 µM. The TGI (HT29 colon) was over 100 µM, the TGI (IGROV1 ovarian) was over 100 µM and the TGI (786-0 renal) was over 100 µM. The TGI (NCI-H23 lung) was over 100 µM, the TGI (CAKI-1 renal) was over 100 µM and the TGI (DMS 114 small cell lung) was over 100 µM. For the same compound, the TGI (HOP-62 NSCLC) was over 100 µM, the TGI (HCT-116 colon) was over 100 µM and the TGI (MALME-3M melanoma) was over 100 µM. For the same compound, the TGI (DLD-1 colon) was over 100 µM, the TGI (SF-295 CNS) was over 100 µM and the TGI (OVCAR-5 ovarian) was over 100 µM. It also gave a TGI (HCC-2998 colon) of over 100 µM, a TGI (RPMI-8226 leukemia) of over 100 µM and a TGI (SK-MEL-28 melanoma) of over 100 µM. It also gave a TGI (M19-MEL melanoma) of over 100 µM, a TGI (LXFL 529 NSCLC) of over 100 µM and a TGI (SF-539 CNS) of over 100 µM. For the same compound, the TGI (SN12C renal) was over 100 µM, the TGI (SK-OV-3 ovarian) was over 100 µM and the TGI (TK-10 renal) was over 100 µM. It also gave a TGI (COLO 205 colon) of over 100 µM, a TGI (SK-MEL-5 melanoma) of over 100 µM and a TGI (SNB-78 CNS) of over 100 µM. It also gave a TGI (KM12 colon) of over 100 µM, a TGI (M14 melanoma) of over 100 µM and a TGI (A549 NSCLC) of over 100 µM. For the same compound, the TGI (SNB-75 CNS) was over 100 µM, the TGI (NCI-H226 lung) was over 100 µM and the TGI (SF-268 CNS) was over 100 µM. For the same compound, the TGI (SK-MEL-2 melanoma) was over 100 µM, the TGI (UO-31 renal) was over 100 µM and the TGI (SNB-19 CNS) was over 100 µM. It also gave a TGI (HOP-18 NSCLC) of over 100 µM.
Compound `C=C1C(=O)OC2CCCCC3OC3C12` (stereo unspecified) has a TGI (UACC-62 melanoma) of 13.7 µM, a TGI (RXF-631 renal) of 19.2 µM and a TGI (KM20L2 colon) of 22.8 µM. It also gave a TGI (LOX IMVI melanoma) of 31.9 µM, a TGI (OVCAR-8 ovarian) of 32.4 µM and a TGI (OVCAR-4 ovarian) of 28.7 µM. For the same compound, the TGI (MOLT-4 leukemia) was 33.2 µM, the TGI (A498 renal) was 29.1 µM and the TGI (HL-60(TB) leukemia) was 9.72 µM. For the same compound, the TGI (CCRF-CEM leukemia) was 20.2 µM, the TGI (UACC-257 melanoma) was 26.5 µM and the TGI (SW-620 colon) was 13.3 µM. For the same compound, the TGI (U251 CNS) was 23 µM, the TGI (RXF 393 renal) was 30.1 µM and the TGI (EKVX NSCLC) was 34.6 µM. It also gave a TGI (OVCAR-3 ovarian) of 26.5 µM, a TGI (ACHN renal) of 23 µM and a TGI (NCI-H460 lung) of 28.3 µM. It also gave a TGI (K-562 leukemia) of 70.5 µM, a TGI (HCT-15 colon) of 19.9 µM and a TGI (HT29 colon) of 32.2 µM. For the same compound, the TGI (IGROV1 ovarian) was 33.4 µM, the TGI (786-0 renal) was 19.8 µM and the TGI (NCI-H23 lung) was 32.6 µM. The TGI (CAKI-1 renal) was 9.83 µM, the TGI (HOP-62 NSCLC) was 41.3 µM and the TGI (HCT-116 colon) was 13 µM. The TGI (MALME-3M melanoma) was 23.1 µM, the TGI (DLD-1 colon) was 23.4 µM and the TGI (SR leukemia) was 53.1 µM. It also gave a TGI (SF-295 CNS) of 48.6 µM, a TGI (OVCAR-5 ovarian) of 32.3 µM and a TGI (NCI-H522 lung) of 3.91 µM. For the same compound, the TGI (HCC-2998 colon) was 23.9 µM, the TGI (RPMI-8226 leukemia) was 27.4 µM and the TGI (SK-MEL-28 melanoma) was 23.9 µM. For the same compound, the TGI (M19-MEL melanoma) was 35.1 µM, the TGI (LXFL 529 NSCLC) was 20.2 µM and the TGI (SF-539 CNS) was 28.1 µM. It also gave a TGI (SN12C renal) of 21.3 µM, a TGI (SK-OV-3 ovarian) of 32 µM and a TGI (TK-10 renal) of 26.7 µM. The TGI (COLO 205 colon) was 11.5 µM, the TGI (SK-MEL-5 melanoma) was 19.5 µM and the TGI (SNB-78 CNS) was 56.5 µM. It also gave a TGI (XF 498 CNS) of 24.7 µM, a TGI (KM12 colon) of 31.8 µM and a TGI (M14 melanoma) of 20.4 µM. The TGI (A549 NSCLC) was 40.2 µM, the TGI (SNB-75 CNS) was 59.1 µM and the TGI (SF-268 CNS) was 31.1 µM. The TGI (SK-MEL-2 melanoma) was 27.5 µM, the TGI (UO-31 renal) was 28.8 µM and the TGI (DMS 273 small cell lung) was 23.8 µM. The TGI (SNB-19 CNS) was 36.8 µM and the TGI (HOP-18 NSCLC) was 23.3 µM.
